Assays:
[1] = target: Ephrin type-A receptor 5 (Homo sapiens) (UniProt P54756); details: Compound concentration 1000.0 nM
[2] = target: Protein kinase C delta type (Homo sapiens) (UniProt Q05655); details: Compound concentration 1000.0 nM
[3] = system: Mast/stem cell growth factor receptor Kit (Homo sapiens), P10721 [D816V]; details: Compound concentration 1000.0 nM
[4] = target: Serine/threonine-protein kinase pim-1 (Homo sapiens) (UniProt P11309); details: Compound concentration 1000.0 nM
[5] = system: Tyrosine-protein kinase ABL1 (Homo sapiens), P00519 [F317L]; details: Compound concentration 1000.0 nM
[6] = target: Interferon-induced, double-stranded RNA-activated protein kinase (Homo sapiens) (UniProt P19525); details: Compound concentration 1000.0 nM
Sequence of Interferon-induced, double-stranded RNA-activated protein kinase (Homo sapiens) (P19525 whole entry): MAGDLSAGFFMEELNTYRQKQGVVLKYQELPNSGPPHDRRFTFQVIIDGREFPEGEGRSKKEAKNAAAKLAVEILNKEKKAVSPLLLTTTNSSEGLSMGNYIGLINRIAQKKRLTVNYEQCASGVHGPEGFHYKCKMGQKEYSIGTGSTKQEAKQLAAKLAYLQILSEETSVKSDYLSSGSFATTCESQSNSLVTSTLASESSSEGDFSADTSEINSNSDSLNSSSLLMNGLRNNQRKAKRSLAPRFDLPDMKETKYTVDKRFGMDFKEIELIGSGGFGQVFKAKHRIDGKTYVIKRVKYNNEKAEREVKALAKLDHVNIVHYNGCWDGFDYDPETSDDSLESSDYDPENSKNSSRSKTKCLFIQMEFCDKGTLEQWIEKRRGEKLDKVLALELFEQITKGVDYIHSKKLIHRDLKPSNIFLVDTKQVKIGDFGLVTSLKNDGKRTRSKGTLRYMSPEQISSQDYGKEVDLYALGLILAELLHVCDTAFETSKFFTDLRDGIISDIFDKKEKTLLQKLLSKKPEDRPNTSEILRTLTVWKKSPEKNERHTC

[7] = target: Serine/threonine-protein kinase 26 (Homo sapiens) (UniProt Q9P289); details: Compound concentration 1000.0 nM
[8] = target: Ephrin type-B receptor 4 (Homo sapiens) (UniProt P54760); details: Compound concentration 1000.0 nM
[9] = target: Tyrosine-protein kinase Srms (Homo sapiens) (UniProt Q9H3Y6); details: Compound concentration 1000.0 nM
[10] = target: Cyclin-dependent kinase 2 (Homo sapiens) (UniProt P24941); details: Compound concentration 1000.0 nM
[11] = target: Serine/threonine-protein kinase tousled-like 2 (Homo sapiens) (UniProt Q86UE8); details: Compound concentration 1000.0 nM
Sequence of Serine/threonine-protein kinase tousled-like 2 (Homo sapiens) (Q86UE8 whole entry, looked up): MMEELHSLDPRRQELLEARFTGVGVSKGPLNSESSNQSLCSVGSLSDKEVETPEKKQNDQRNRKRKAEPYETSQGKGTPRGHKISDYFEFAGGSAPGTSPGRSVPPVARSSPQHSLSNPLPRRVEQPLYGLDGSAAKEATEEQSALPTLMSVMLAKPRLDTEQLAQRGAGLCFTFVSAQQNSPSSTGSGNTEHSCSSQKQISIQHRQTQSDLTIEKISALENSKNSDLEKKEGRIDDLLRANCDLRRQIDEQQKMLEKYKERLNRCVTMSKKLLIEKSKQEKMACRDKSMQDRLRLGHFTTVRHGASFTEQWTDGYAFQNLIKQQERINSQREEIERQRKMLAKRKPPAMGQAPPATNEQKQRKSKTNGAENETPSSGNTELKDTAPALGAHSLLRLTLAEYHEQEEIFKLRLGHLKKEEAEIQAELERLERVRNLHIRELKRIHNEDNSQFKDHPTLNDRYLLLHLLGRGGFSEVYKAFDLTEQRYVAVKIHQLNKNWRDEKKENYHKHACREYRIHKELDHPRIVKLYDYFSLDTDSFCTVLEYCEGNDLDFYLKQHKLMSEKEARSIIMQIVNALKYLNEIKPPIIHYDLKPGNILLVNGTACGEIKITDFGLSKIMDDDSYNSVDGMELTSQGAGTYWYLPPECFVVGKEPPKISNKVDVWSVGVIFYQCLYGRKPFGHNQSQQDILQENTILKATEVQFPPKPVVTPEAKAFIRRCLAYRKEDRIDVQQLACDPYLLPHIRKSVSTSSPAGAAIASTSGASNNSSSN

[12] = target: Myosin light chain kinase, smooth muscle (Homo sapiens) (UniProt Q15746); details: Compound concentration 1000.0 nM
[13] = target: cAMP-dependent protein kinase catalytic subunit alpha (Homo sapiens) (UniProt P17612); details: Compound concentration 1000.0 nM
[14] = target: Phosphatidylinositol 5-phosphate 4-kinase type-2 gamma (Homo sapiens) (UniProt Q8TBX8); details: Compound concentration 1000.0 nM
[15] = target: Serine/threonine-protein kinase RIO1 (Homo sapiens) (UniProt Q9BRS2); details: Compound concentration 1000.0 nM
[16] = target: Phosphorylase b kinase gamma catalytic chain, skeletal muscle/heart isoform (Homo sapiens) (UniProt Q16816); details: Compound concentration 1000.0 nM
[17] = target: 5'-AMP-activated protein kinase catalytic subunit alpha-2 (Homo sapiens) (UniProt P54646); details: Compound concentration 1000.0 nM
[18] = target: cGMP-dependent protein kinase 2 (Homo sapiens) (UniProt Q13237); details: Compound concentration 1000.0 nM
[19] = target: Insulin receptor-related protein (Homo sapiens) (UniProt P14616); details: Compound concentration 1000.0 nM
[20] = target: MAP kinase-interacting serine/threonine-protein kinase 2 (Homo sapiens) (UniProt Q9HBH9); details: Compound concentration 1000.0 nM
[21] = target: RAF proto-oncogene serine/threonine-protein kinase (Homo sapiens) (UniProt P04049); details: Compound concentration 1000.0 nM
[22] = target: cAMP-dependent protein kinase catalytic subunit beta (Homo sapiens) (UniProt P22694); details: Compound concentration 1000.0 nM
[23] = target: Homeodomain-interacting protein kinase 4 (Homo sapiens) (UniProt Q8NE63); details: Compound concentration 1000.0 nM
[24] = target: Mitogen-activated protein kinase 8 (Homo sapiens) (UniProt P45983); details: Compound concentration 1000.0 nM
[25] = target: Serine/threonine-protein kinase WNK1 (Homo sapiens) (UniProt Q9H4A3); details: Compound concentration 1000.0 nM
[26] = target: Histamine H4 receptor (Homo sapiens) (UniProt Q9H3N8); details: Compound concentration 10.0 uM
[27] = target: Glycogen synthase kinase-3 alpha (Homo sapiens) (UniProt P49840); details: Compound concentration 1000.0 nM
[28] = target: Mitogen-activated protein kinase kinase kinase 12 (Homo sapiens) (UniProt Q12852); details: Compound concentration 1000.0 nM
Sequence of Mitogen-activated protein kinase kinase kinase 12 (Homo sapiens) (Q12852 whole entry): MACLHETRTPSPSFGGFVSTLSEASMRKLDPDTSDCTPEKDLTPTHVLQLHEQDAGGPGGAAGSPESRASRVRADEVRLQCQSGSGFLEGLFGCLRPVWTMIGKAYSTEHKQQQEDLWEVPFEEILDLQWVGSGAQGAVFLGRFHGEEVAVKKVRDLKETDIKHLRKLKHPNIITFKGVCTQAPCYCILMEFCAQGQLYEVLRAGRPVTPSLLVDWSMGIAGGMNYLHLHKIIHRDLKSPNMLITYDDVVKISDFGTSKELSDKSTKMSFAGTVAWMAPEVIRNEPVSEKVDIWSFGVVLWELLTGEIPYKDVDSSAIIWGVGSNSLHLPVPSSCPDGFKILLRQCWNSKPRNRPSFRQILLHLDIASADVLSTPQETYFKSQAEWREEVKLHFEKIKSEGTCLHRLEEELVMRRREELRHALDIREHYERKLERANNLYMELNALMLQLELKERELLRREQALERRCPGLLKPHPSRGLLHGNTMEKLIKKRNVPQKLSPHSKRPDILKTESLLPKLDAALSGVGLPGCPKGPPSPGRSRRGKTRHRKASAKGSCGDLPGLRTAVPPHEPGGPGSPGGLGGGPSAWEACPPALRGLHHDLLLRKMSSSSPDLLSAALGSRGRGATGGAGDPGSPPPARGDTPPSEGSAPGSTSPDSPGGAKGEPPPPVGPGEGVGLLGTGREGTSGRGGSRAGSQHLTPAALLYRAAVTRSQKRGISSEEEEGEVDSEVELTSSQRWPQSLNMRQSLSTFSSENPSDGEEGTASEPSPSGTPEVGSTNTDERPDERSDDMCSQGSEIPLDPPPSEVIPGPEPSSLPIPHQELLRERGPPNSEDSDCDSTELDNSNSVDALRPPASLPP

[29] = target: Casein kinase II subunit alpha' (Homo sapiens) (UniProt P19784); details: Compound concentration 1000.0 nM
[30] = target: SRSF protein kinase 3 (Homo sapiens) (UniProt Q9UPE1); details: Compound concentration 1000.0 nM
[31] = target: Cyclin-dependent kinase 19 (Homo sapiens) (UniProt Q9BWU1); details: Compound concentration 1000.0 nM
[32] = target: Phosphatidylinositol 4,5-bisphosphate 3-kinase catalytic subunit alpha isoform (Homo sapiens) (UniProt P42336); details: Compound concentration 1000.0 nM
[33] = target: Ribosomal protein S6 kinase alpha-5 (Homo sapiens) (UniProt O75582); details: Compound concentration 1000.0 nM
[34] = target: Serine/threonine-protein kinase BRSK1 (Homo sapiens) (UniProt Q8TDC3); details: Compound concentration 1000.0 nM
[35] = target: Cyclin-dependent kinase 9 (Homo sapiens) (UniProt P50750); details: Compound concentration 1000.0 nM
[36] = system: Tyrosine-protein kinase ABL1 (Homo sapiens), P00519 [F317I]; details: Compound concentration 1000.0 nM
Sequence of Tyrosine-protein kinase ABL1 (Homo sapiens), P00519 [F317I] (P00519 whole entry F317I): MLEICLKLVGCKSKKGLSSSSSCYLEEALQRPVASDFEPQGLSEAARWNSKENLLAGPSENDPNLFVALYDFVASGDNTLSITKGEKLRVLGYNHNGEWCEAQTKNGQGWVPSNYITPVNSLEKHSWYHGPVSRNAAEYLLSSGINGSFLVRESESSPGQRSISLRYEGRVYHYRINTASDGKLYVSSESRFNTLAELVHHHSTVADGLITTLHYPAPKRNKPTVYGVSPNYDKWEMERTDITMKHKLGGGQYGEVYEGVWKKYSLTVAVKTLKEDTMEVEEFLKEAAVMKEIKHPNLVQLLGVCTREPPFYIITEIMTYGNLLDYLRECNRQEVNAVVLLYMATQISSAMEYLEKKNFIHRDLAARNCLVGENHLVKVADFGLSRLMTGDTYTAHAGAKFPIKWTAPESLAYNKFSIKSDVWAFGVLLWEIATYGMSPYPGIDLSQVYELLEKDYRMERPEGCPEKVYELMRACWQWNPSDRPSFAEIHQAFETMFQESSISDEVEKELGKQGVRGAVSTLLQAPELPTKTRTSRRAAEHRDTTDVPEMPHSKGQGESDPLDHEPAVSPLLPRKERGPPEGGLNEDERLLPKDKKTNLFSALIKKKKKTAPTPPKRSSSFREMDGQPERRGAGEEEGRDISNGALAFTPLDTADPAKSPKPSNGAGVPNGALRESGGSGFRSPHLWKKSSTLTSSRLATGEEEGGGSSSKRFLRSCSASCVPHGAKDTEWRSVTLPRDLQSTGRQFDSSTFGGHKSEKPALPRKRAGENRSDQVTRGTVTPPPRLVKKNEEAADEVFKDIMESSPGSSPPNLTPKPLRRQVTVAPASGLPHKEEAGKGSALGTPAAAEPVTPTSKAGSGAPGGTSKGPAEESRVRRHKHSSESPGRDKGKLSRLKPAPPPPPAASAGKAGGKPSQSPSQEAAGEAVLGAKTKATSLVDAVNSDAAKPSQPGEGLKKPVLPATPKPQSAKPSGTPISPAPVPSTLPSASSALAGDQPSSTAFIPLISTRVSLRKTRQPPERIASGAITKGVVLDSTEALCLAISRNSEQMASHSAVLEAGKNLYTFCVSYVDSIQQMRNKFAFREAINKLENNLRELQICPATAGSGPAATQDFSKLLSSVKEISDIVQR

[37] = target: Interleukin-1 receptor-associated kinase 3 (Homo sapiens) (UniProt Q9Y616); details: Compound concentration 1000.0 nM
[38] = target: Dual specificity mitogen-activated protein kinase kinase 3 (Homo sapiens) (UniProt P46734); details: Compound concentration 1000.0 nM
Sequence of Dual specificity mitogen-activated protein kinase kinase 3 (Homo sapiens) (P46734 whole entry): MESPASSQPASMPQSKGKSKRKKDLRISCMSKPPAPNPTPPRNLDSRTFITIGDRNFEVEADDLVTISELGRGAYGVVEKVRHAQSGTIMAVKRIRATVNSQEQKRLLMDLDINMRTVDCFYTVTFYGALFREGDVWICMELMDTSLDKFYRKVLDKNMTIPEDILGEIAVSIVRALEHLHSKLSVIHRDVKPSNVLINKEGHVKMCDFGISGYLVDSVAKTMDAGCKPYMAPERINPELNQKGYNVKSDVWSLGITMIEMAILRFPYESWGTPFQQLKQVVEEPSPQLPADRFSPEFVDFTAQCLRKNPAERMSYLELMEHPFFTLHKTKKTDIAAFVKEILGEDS

[39] = target: Alpha-1B adrenergic receptor (Homo sapiens) (UniProt P35368); details: Compound concentration 10.0 uM
[40] = target: Mu-type opioid receptor (Homo sapiens) (UniProt P35372); details: Compound concentration 10.0 uM
[41] = target: Serine/threonine-protein kinase RIO2 (Homo sapiens) (UniProt Q9BVS4); details: Compound concentration 1000.0 nM
[42] = target: Cyclin-G-associated kinase (Homo sapiens) (UniProt O14976); details: Compound concentration 1000.0 nM
[43] = target: Serine/threonine-protein kinase 25 (Homo sapiens) (UniProt O00506); details: Compound concentration 1000.0 nM
[44] = target: Tyrosine-protein kinase Tec (Homo sapiens) (UniProt P42680); details: Compound concentration 1000.0 nM
[45] = system: Receptor-type tyrosine-protein kinase FLT3 (Homo sapiens), P36888 [UNDEFINED MUTATION]; details: Compound concentration 1000.0 nM
Sequence of Receptor-type tyrosine-protein kinase FLT3 (Homo sapiens), P36888 [UNDEFINED MUTATION] (P36888 whole entry, looked up, change not shown): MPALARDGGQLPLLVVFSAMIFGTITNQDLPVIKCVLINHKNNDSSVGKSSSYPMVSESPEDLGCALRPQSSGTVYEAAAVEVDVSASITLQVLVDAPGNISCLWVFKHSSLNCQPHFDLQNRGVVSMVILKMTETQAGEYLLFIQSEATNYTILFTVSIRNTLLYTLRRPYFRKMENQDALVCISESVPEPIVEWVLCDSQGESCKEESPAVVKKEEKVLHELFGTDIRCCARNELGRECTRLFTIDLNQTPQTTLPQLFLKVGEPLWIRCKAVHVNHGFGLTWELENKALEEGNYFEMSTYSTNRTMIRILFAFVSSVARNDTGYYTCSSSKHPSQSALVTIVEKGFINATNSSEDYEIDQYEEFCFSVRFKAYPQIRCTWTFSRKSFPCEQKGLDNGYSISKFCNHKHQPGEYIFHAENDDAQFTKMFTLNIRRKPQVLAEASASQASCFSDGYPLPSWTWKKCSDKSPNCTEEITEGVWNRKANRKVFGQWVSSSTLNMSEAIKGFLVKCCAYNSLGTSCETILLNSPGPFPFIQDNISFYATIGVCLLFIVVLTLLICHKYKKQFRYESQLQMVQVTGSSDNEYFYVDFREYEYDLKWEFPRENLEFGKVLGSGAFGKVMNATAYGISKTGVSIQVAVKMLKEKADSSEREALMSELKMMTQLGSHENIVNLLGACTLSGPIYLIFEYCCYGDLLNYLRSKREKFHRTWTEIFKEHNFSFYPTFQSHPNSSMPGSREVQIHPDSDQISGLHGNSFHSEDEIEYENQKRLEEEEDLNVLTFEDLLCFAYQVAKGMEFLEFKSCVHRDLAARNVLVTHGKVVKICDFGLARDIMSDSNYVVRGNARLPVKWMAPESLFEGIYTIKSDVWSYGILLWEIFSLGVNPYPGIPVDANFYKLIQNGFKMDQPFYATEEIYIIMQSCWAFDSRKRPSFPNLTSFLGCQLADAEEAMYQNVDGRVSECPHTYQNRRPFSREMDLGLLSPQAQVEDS

Sequence of Serine/threonine-protein kinase pim-1 (Homo sapiens) (P11309 whole entry, looked up): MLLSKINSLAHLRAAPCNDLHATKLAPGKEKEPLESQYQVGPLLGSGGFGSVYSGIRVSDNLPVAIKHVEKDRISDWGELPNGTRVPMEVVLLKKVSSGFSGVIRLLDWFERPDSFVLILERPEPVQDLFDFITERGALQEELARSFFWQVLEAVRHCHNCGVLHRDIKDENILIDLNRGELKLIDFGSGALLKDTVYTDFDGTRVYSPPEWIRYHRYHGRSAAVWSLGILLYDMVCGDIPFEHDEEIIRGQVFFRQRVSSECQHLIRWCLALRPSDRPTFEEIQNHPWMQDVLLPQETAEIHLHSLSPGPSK

CCS(=O)(=O)c1cc2cc(C[C@@](O)(CC(C)(C)c3ccc(F)cc3C(N)=O)C(F)(F)F)[nH]c2cn1
inactive: residual activity [1] 100% | residual activity [2] 99% | residual activity [3] 90% | residual activity [4] 97% | residual activity [5] 61% | residual activity [6] 61% | residual activity [7] 91% | residual activity [8] 100% | residual activity [9] 72% | residual activity [10] 96% | residual activity [11] 97% | residual activity [12] 93% | residual activity [13] 100% | residual activity [14] 100% | residual activity [15] 50% | residual activity [16] 67% | residual activity [17] 100% | residual activity [18] 86% | residual activity [19] 64% | residual activity [20] 87% | residual activity [21] 81% | residual activity [22] 99% | residual activity [23] 100% | residual activity [24] 98% | residual activity [25] 90% | inhibition [26] 2.05% | residual activity [27] 100% | residual activity [28] 83% | residual activity [29] 83% | residual activity [30] 100% | residual activity [31] 100% | residual activity [32] 100% | residual activity [33] 69% | residual activity [34] 73% | residual activity [35] 78% | residual activity [36] 100% | residual activity [37] 67% | residual activity [38] 67% | inhibition [39] 1.64% | inhibition [40] 7.98% | residual activity [41] 95% | residual activity [42] 71% | residual activity [43] 87% | residual activity [44] 100% | residual activity [45] 78%

CCS(=O)(=O)c1cc2cc(C[C@](O)(CC(C)(C)c3ccc(F)cc3C(N)=O)C(F)(F)F)[nH]c2cn1
inactive: residual activity [1] 100% | residual activity [2] 100% | residual activity [3] 100% | residual activity [4] 100% | residual activity [5] 90% | residual activity [6] 52% | residual activity [7] 94% | residual activity [8] 100% | residual activity [9] 83% | residual activity [10] 94% | residual activity [11] 100% | residual activity [12] 96% | residual activity [13] 100% | residual activity [14] 100% | residual activity [15] 80% | residual activity [16] 66% | residual activity [17] 97% | residual activity [18] 85% | residual activity [19] 100% | residual activity [20] 100% | residual activity [21] 83% | residual activity [22] 100% | residual activity [23] 100% | residual activity [24] 100% | residual activity [25] 97% | inhibition [26] 3.88% | residual activity [27] 100% | residual activity [28] 100% | residual activity [29] 92% | residual activity [30] 100% | residual activity [31] 100% | residual activity [32] 81% | residual activity [33] 100% | residual activity [34] 99% | residual activity [35] 100% | residual activity [36] 94% | residual activity [37] 96% | residual activity [38] 100% | inhibition [39] 3.39% | inhibition [40] 7.51% | residual activity [41] 100% | residual activity [42] 100% | residual activity [43] 86% | residual activity [44] 90% | residual activity [45] 91%

Reference: ChEMBL document CHEMBL4507277
